# Ends that are not written are not given here.
# Assays:
# [1] = test system: MRC-5 cells; experiment: Western blot of α-SMA, Col 1 and fibronectin in TGF-β1 treated MRC-5 cells; assay type: cell-based, human; details: MRC-5 cells treated with TGF-β1, western blot, n = 3
# Description: The progression of pulmonary fibrosis is closely associated with impaired autophagic flux by promoting the differentiation of fibroblast into myofibroblast. Given that Ac‐GFFY‐A2 peptide nanofibers have ability to restore the impaired autophagy, we proceeded to investigate their potential anti‐fibrotic effect. Fibroblasts and myofibroblasts are activated after tissue injury and in IPF patients, leading to increased ECM production and enhanced fibroblast migratory capacity.
# Western blot analysis and co-immunoprecipitation
# Total proteins were exacted from cells or tissues with RIPA lysis buffer (Beyotime Biotecnology). The protein concentration was measured using BCA Protein Assay Kit (Thermo Scientific). Equal amounts of lysates were resolved by SDS–PAGE. The protein transferred PVDF membranes were incubated with following primary antibodies at 4°C overnight: Then the membranes were incubated with horseradish peroxidase (HRP)-conjugated secondary antibodies at room temperature for 1 h, and protein signals were detected using an enhanced chemiluminescence kit (Pierce). […] The co -precipitates were resolved using SDS–PAGE and detected with immunoblotting. […]
# The mice were then intravenously injected with 200 μL of sulfo-Cy5 labeled peptide (0.3 mg per mouse). Fluorescence imaging was performed using a IVIS Lumina II imaging (PerkinElmer, USA) at different time point post injection. […]
# [2] = test system: bleomycin-induced pulmonary fibrosis; experiment: Bleomycin model of pulmonary fibrosis, therapeutic treatment; assay type: in vivo, C57BL/6 mice; details: for survival rate: bleomycin 2 U kg−1 intratracheal, i.v. treatment from 7 days later, Ac-GFFY-A2 10 mg/kg, 21-day period, n = 16
# Description: We further evaluated the anti‐fibrotic effect of Ac‐GFFY‐A2 peptide nanofibers in vivo. […] The observed reductions in fibrosis, collagen accumulation, and protein levels of Col 1 and α‐SMA strongly support the efficacy of Ac‐GFFY‐A2 in combating fibrotic processes, confirming that the peptide nanofibers as a TRB3/p62 PPIs modulator with a potent anti‐fibrotic activity.
# C57BL/6 mice were intratracheally administered with bleomycin at a dose of 2 U kg^−1 body weight as previously described.^[ [11a] ^]
# Hydroxyproline content of the right lung of each mouse was measured using a conventional hydroxyproline method as previously described.^[ [30] ^]
# The left lungs cleared of blood were inflated with 10% neutral buffered formalin and fixed overnight. Then the tissues were embedded in paraffin and sectioned. The 5‐µm sections were stained with H&E and Masson trichrome according to the manufacturer`s instructions (Sigma–Aldrich). Immunohistochemistry was performed as previously described.^[ [30] ^] The antibodies specific for α‐SMA and Collagen I were used for staining.
Substance,"protein expression of α-SMA, col 1 and fibronectin [1]",survival rate [2] [%],"quantification of fibrotic left lung sections (lung fibrotic score) ([2]; bleomycin mice, i.v. treatment, H&E, compared to saline or A2)","body weight ([2]; bleomycin mice, i.v. treatment, average body weight curve)","hydroxyproline content ([2]; bleomycin mice, i.v. treatment, bleomycin challenge alone ≈480)"
Ac-GFFYGGWLTRLLQTK-OH [Ac-GFFY-A2],remarkably reduced,68.75,significant decrease in fibrosis,partial recovery from the body weight loss,≈ 280 µg per right lung tissue
"GGWLTRLLQTK-OH [A2, reference compound]",hardly inhibited fibroblast to myofibroblast differentiation,62.50,,,

# Reference: PMC11267363, “Supramolecular Nanofibers Ameliorate Bleomycin‐Induced Pulmonary Fibrosis by Restoring Autophagy” (Advanced Science, 2024)
